Measured values reported in patent US20020137154A1, “Methods for improving cell growth and alcohol production during fermentation” (priority 2000, published 2002).
Where two headings read alike, the source gives them in different places.

Tested on: recombinant Escherichia coli KO11
Assay: Batch fermentation of E. coli KO11 in 1% CSL medium and xylose with nutrient additives: ethanol production and cell growth
Assay type: cell-based
Settings: for Ethanol Production Maximum / Ethanol yield / Initial Growth (OD @ 24 h) OD / Maximum Cell Density OD / Maximum Cell Density Time / Volumetric Productivity Average / Volumetric Productivity Maximum: 1% CSL+xylose; for activity at 250 µg/mL / activity at 100 µg/mL / activity at 500 µg/mL: Escherichia coli
[1] = 1% CSL and xylose, 0.25 g/L at the start and after 12 hours
[2] = 3 × 0.25 g/L (start, 12 h, 24 h)

With `CC=O` [Acetaldehyde, acetaldehyde] the “ethanol production as compared to the control” value [1] was “highest amount of ethanol production”, the “initial growth and maximum cell density as compared to a control” value [1] was “greatest initial growth and maximum cell density” and the “Ethanol Production Maximum” value (0.1 g/L at start) was 29.51 g/L. For the same molecule, the Ethanol yield (0.1 g/L at start) was 0.304 grams of ethanol/grams of added sugar, the “Initial Growth (OD @ 24 h) OD” value (0.1 g/L at start) was 2.25 OD and the “Maximum Cell Density OD” value (0.1 g/L at start) was 2.56 OD. For the same molecule, the “Maximum Cell Density Time” value (0.1 g/L at start) was 48 h, the “Volumetric Productivity Average” value (0.1 g/L at start) was 0.307 grams ethanol/(liter)(hour) and the “Volumetric Productivity Maximum” value (0.1 g/L at start) was 0.389 grams ethanol/(liter)(hour). The “Ethanol Production Maximum” value (0.25 g/L at start) was 34.45 g/L, the Ethanol yield (0.25 g/L at start) was 0.355 grams of ethanol/grams of added sugar and the “Initial Growth (OD @ 24 h) OD” value (0.25 g/L at start) was 2.48 OD. The “Maximum Cell Density OD” value (0.25 g/L at start) was 3.12 OD, the “Maximum Cell Density Time” value (0.25 g/L at start) was 96 h and the “Volumetric Productivity Average” value (0.25 g/L at start) was 0.359 grams ethanol/(liter)(hour). The “Volumetric Productivity Maximum” value (0.25 g/L at start) was 0.425 grams ethanol/(liter)(hour), the “Ethanol Production Maximum” value (0.5 g/L at start) was 42.66 g/L and the Ethanol yield (0.5 g/L at start) was 0.439 grams of ethanol/grams of added sugar. The “Initial Growth (OD @ 24 h) OD” value (0.5 g/L at start) was 2.55 OD, the “Maximum Cell Density OD” value (0.5 g/L at start) was 4.31 OD and the “Maximum Cell Density Time” value (0.5 g/L at start) was 96 h. For the same molecule, the “Volumetric Productivity Average” value (0.5 g/L at start) was 0.444 grams ethanol/(liter)(hour), the “Volumetric Productivity Maximum” value (0.5 g/L at start) was 0.623 grams ethanol/(liter)(hour) and the “Ethanol Production Maximum” value (2 × 0.25 g/L (start, 12 h)) was 45.57 g/L. The Ethanol yield (2 × 0.25 g/L (start, 12 h)) was 0.469 grams of ethanol/grams of added sugar, the “Initial Growth (OD @ 24 h) OD” value (2 × 0.25 g/L (start, 12 h)) was 3.36 OD and the “Maximum Cell Density OD” value (2 × 0.25 g/L (start, 12 h)) was 4.67 OD. For the same molecule, the “Maximum Cell Density Time” value (2 × 0.25 g/L (start, 12 h)) was 96 h, the “Volumetric Productivity Average” value (2 × 0.25 g/L (start, 12 h)) was 0.475 grams ethanol/(liter)(hour) and the “Volumetric Productivity Maximum” value (2 × 0.25 g/L (start, 12 h)) was 0.740 grams ethanol/(liter)(hour). For the same molecule, the “Ethanol Production Maximum” value [2] was 38.21 g/L, the Ethanol yield [2] was 0.393 grams of ethanol/grams of added sugar and the “Initial Growth (OD @ 24 h) OD” value [2] was 3.04 OD. For the same molecule, the “Maximum Cell Density OD” value [2] was 4.02 OD, the “Maximum Cell Density Time” value [2] was 48 h and the “Volumetric Productivity Average” value [2] was 0.398 grams ethanol/(liter)(hour). For the same molecule, the “Volumetric Productivity Maximum” value [2] was 0.540 grams ethanol/(liter)(hour), the activity at 250 µg/mL (12 h, read-out: Ethanol Production Maximum % Control, 1% CSL+xylose, 2 × 0.25 g/L (start, 12 h)) was 152% and the activity at 250 µg/mL (12 h, read-out: Maximum Cell Density % Control, 1% CSL+xylose, 2 × 0.25 g/L (start, 12 h)) was 186%. The activity at 250 µg/mL (12 h, read-out: Volumetric Productivity Average % Control, 1% CSL+xylose, 2 × 0.25 g/L (start, 12 h)) was 152%, the activity at 250 µg/mL (12 h, read-out: Volumetric Productivity Maximum % Control, 1% CSL+xylose, 2 × 0.25 g/L (start, 12 h)) was 201% and the activity at 100 µg/mL (24 h, read-out: Initial Growth (OD @ 24 h) % Control, 1% CSL+xylose, 0.1 g/L at start) was 110%. The activity at 250 µg/mL (24 h, read-out: Initial Growth (OD @ 24 h) % Control, 1% CSL+xylose, 0.25 g/L at start) was 121%, the activity at 500 µg/mL (24 h, read-out: Initial Growth (OD @ 24 h) % Control, 1% CSL+xylose, 0.5 g/L at start) was 125% and the activity at 250 µg/mL (24 h, read-out: Initial Growth (OD @ 24 h) % Control, 1% CSL+xylose, 2 × 0.25 g/L (start, 12 h)) was 165%. For the same molecule, the activity at 250 µg/mL (24 h, read-out: Initial Growth (OD @ 24 h) % Control, 1% CSL+xylose, 3 × 0.25 g/L (start, 12 h, 24 h)) was 149%, the activity at 100 µg/mL (read-out: Ethanol Production Maximum % Control, 1% CSL+xylose, 0.1 g/L at start) was 98.1% and the activity at 250 µg/mL (read-out: Ethanol Production Maximum % Control, 1% CSL+xylose, 0.25 g/L at start) was 115%. It also gave an activity at 500 µg/mL (read-out: Ethanol Production Maximum % Control, 1% CSL+xylose, 0.5 g/L at start) of 142%, an activity at 250 µg/mL (read-out: Ethanol Production Maximum % Control, 1% CSL+xylose, 3 × 0.25 g/L (start, 12 h, 24 h)) of 127% and an activity at 100 µg/mL (read-out: Maximum Cell Density % Control, 1% CSL+xylose, 0.1 g/L at start) of 102%. For the same molecule, the activity at 250 µg/mL (read-out: Maximum Cell Density % Control, 1% CSL+xylose, 0.25 g/L at start) was 124%, the activity at 500 µg/mL (read-out: Maximum Cell Density % Control, 1% CSL+xylose, 0.5 g/L at start) was 171% and the activity at 250 µg/mL (read-out: Maximum Cell Density % Control, 1% CSL+xylose, 3 × 0.25 g/L (start, 12 h, 24 h)) was 160%. It also gave an activity at 100 µg/mL (read-out: Volumetric Productivity Average % Control, 1% CSL+xylose, 0.1 g/L at start) of 98.1%, an activity at 250 µg/mL (read-out: Volumetric Productivity Average % Control, 1% CSL+xylose, 0.25 g/L at start) of 115% and an activity at 500 µg/mL (read-out: Volumetric Productivity Average % Control, 1% CSL+xylose, 0.5 g/L at start) of 142%. It also gave an activity at 250 µg/mL (read-out: Volumetric Productivity Average % Control, 1% CSL+xylose, 3 × 0.25 g/L (start, 12 h, 24 h)) of 127%, an activity at 100 µg/mL (read-out: Volumetric Productivity Maximum % Control, 1% CSL+xylose, 0.1 g/L at start) of 106% and an activity at 250 µg/mL (read-out: Volumetric Productivity Maximum % Control, 1% CSL+xylose, 0.25 g/L at start) of 115%. It also gave an activity at 500 µg/mL (read-out: Volumetric Productivity Maximum % Control, 1% CSL+xylose, 0.5 g/L at start) of 169% and an activity at 250 µg/mL (read-out: Volumetric Productivity Maximum % Control, 1% CSL+xylose, 3 × 0.25 g/L (start, 12 h, 24 h)) of 147%.
